We go through 3 compounds from patent KR20230001519A, “근위 단백질 변형 반응을 이용한 신규한 약물 결합 단백질의 동정” (서울대학교산학협력단, priority 2021, dated 2023).

Structures can show the parent of a compound that is named as a salt.

One assay deals with T1, ABDSMARCA2 (Homo sapiens, UniProt P51531).
T1 construct: ABD SMARCA2(736-901aa 헬리카제-ATP 결합 도메인)-HA; expressed in transfected cells; host or cells: HEK293-AD
Description: Translocation and PL-IP assays with ATP binding domain of SMARCA2. It counts as cell-based. Particulars: concluded from translocation of ABDSMARCA2 to mitochondria-targeted HT-TurbID.

For assay [1], the target named is T2, CSK (Homo sapiens, UniProt P41240). Also on record: host or cells: U2OS (translocation, A17; reproduced in COS-7); HEK293T (PL-IP, A19). Particulars: in vitro characterization; cited from earlier work.
T2 sequence (P41240 whole entry): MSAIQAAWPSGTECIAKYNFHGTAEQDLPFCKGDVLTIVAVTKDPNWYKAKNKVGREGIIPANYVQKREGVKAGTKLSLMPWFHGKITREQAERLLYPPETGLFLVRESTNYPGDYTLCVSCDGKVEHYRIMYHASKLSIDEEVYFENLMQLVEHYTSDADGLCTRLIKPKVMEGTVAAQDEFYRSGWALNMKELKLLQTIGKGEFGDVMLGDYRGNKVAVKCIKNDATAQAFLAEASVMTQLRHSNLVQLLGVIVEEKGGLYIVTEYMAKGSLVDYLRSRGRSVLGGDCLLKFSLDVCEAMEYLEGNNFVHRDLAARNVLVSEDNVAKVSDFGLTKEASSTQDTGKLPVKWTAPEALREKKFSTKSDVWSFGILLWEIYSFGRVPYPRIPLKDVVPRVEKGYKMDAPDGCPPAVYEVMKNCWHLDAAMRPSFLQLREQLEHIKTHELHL
The subject of assay [2] is HT-TurbID stably expressing K562 cells (HT-TurbID를 안정적으로 발현하는 K562 세포주). Description: Biotinylation in K562 cells stably expressing HT-TurbID (streptavidin-HRP western blot). In kind it is cell-based, human. (In general: Immunoblotting shows a protein as a band on a membrane.)
Another assay deals with Ba/F3 cells (Ba/F3 세포). Put plainly: CCK-8 growth inhibition, Ba/F3. It counts as cell-based, mouse. Particulars: Ba/F3, 72 h.
The target of another assay is T3, RIOK1 (Homo sapiens, UniProt Q9BRS2).
T3 construct: endogenous in cells; host or cells: K562 stably expressing HT-V5-TurbID
T3 sequence (Q9BRS2 1-568): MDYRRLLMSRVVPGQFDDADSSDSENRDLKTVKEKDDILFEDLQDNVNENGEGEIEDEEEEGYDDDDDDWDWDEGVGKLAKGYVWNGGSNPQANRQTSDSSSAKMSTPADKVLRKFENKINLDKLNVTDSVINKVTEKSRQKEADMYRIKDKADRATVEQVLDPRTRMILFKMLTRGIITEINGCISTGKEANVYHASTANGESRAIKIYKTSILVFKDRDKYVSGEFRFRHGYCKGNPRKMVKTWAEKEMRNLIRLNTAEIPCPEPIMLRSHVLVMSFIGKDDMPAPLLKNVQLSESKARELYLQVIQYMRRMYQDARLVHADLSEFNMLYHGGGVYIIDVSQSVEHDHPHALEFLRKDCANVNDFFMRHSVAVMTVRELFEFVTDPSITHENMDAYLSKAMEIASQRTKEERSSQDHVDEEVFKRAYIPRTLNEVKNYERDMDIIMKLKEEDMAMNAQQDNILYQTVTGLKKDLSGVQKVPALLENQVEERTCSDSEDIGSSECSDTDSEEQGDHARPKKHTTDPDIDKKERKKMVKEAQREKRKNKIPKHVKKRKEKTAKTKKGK
Description: PROCID mass analysis, RIOK1. It counts as cell-based. Particulars: RIOK1, K562.

In assay [3] the target is T2, CSK. Description: PROCID mass analysis, CSK. In kind it is cell-based. On the set-up: endogenous in cells; host or cells: K562 stably expressing HT-V5-TurbID.
Another assay has as its target T4, TOM20-HA-KDABL1 (Homo sapiens, UniProt P00519).
T4 construct: KDABL1, 아미노산 239-512, Uniprot ID: P00519; expressed in transfected cells
T4 sequence (P00519 239-512): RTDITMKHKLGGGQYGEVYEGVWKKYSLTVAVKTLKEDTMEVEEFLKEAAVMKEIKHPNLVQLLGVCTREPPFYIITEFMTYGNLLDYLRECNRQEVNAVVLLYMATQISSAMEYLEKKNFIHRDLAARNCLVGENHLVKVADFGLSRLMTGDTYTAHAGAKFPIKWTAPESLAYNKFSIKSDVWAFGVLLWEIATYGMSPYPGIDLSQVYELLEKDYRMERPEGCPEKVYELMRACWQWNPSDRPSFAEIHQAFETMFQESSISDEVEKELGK
Put plainly: Proximity biotinylation of TOM20-HA-KDABL1 by HT-TurbID. It counts as cell-based. To be noted: HT-TurbID in cytosol; data not shown.

Assay [4] concerns the target T5, BTK (Mus musculus, UniProt P35991). Description: In cellulo translocation assay, BTK-mCherry to HT-TurbID-MoA. It counts as cell-based. Also on record: host or cells: U2OS (translocation, A16; reproduced in COS-7).
A further assay deals with T6, SMARCA2 (Homo sapiens, UniProt P51531).
T6 construct: endogenous in cells; host or cells: K562 stably expressing HT-V5-TurbID
T6 sequence (P51531 whole entry): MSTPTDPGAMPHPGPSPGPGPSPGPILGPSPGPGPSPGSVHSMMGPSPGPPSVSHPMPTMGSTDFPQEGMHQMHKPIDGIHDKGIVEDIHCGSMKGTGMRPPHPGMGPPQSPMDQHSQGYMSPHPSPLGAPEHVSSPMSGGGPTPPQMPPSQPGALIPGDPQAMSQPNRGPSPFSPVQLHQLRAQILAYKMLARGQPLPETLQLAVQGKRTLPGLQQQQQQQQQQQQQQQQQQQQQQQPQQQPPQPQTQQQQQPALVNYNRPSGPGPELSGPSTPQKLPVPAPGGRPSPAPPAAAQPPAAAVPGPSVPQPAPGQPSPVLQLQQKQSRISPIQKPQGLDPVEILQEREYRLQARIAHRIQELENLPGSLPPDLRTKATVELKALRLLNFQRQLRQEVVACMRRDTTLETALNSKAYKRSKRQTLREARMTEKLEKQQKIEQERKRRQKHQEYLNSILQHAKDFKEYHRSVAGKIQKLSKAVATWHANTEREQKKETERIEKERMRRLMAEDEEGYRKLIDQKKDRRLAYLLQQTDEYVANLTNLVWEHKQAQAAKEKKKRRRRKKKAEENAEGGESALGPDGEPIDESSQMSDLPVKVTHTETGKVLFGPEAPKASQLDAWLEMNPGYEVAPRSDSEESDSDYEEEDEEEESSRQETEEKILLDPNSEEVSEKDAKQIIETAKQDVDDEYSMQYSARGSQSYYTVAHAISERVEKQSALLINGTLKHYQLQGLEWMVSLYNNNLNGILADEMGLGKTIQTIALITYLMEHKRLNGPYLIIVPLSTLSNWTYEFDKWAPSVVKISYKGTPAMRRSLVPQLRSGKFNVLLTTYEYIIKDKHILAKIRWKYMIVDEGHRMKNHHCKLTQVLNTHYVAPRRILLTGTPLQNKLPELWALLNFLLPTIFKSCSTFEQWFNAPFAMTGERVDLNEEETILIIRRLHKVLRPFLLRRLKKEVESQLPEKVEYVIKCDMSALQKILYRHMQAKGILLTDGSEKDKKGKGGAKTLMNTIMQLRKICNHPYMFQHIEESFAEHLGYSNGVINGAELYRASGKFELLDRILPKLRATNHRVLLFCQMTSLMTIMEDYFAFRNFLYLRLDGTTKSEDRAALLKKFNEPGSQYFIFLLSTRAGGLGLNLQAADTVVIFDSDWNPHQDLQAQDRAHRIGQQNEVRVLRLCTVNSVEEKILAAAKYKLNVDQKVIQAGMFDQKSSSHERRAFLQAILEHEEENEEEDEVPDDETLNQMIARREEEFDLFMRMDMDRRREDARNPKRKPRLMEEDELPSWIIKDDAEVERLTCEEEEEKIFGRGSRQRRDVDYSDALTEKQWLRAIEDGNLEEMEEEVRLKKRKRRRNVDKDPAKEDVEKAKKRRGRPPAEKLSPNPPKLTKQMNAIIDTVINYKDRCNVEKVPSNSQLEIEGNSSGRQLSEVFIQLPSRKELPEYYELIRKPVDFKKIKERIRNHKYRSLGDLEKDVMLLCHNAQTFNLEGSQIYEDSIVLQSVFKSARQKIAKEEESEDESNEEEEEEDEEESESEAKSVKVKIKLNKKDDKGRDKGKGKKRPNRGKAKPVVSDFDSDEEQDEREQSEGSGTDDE
Put plainly: PROCID mass analysis, SMARCA2. It counts as cell-based.

For assay [5], the system named is HaloTag protein (할로택 단백질). Put plainly: In vitro competition assay of HaloTag ligand (dansyl-HTL, in-gel fluorescence). It counts as binding. Particulars: competition with dansyl-HTL; purified HaloTag 10 μM, compound 10 μM; data not shown.
In assay [6] the target is T2, CSK. Description: In cellulo translocation assay, CSK-EGFP to HT-TurbID-MoA. In kind it is cell-based. On the set-up: host or cells: U2OS (translocation, A17; reproduced in COS-7).
Assay [7] addresses T7, KDABL1 (Homo sapiens, UniProt P00519).
T7 sequence (P00519 239-512): T4 sequence (P00519 239-512)
Description: Proximity biotinylation of HA-KDABL1 by HT-TurbID (PL-IP, western blot). In kind it is cell-based. On the set-up: KDABL1, 아미노산 239-512, Uniprot ID: P00519; expressed in transfected cells; host or cells: HEK293T (PL-IP, A6). To be noted: HEK293T, 500 nM, 3 h; biotin 100 μM, 30 min; SA-HRP western blot.

For another assay, the system named is K562 cells (K562 세포). Put plainly: CCK-8 growth inhibition, K562. In kind it is cell-based, human. Particulars: K562, 72 h.
In another assay the test system is ABL1. Put plainly: PROCID mass analysis, ABL1. In kind it is cell-based, Homo sapiens. To be noted: ABL1, K562.
Assay [8] concerns the target T5, BTK. Description: PL-IP biotinylation of BTK-mCherry. It counts as cell-based.
The target of a further assay is T8, ABL2 (Homo sapiens, UniProt P42684).
T8 construct: endogenous in cells; host or cells: K562 stably expressing HT-V5-TurbID
T8 sequence (P42684 whole entry): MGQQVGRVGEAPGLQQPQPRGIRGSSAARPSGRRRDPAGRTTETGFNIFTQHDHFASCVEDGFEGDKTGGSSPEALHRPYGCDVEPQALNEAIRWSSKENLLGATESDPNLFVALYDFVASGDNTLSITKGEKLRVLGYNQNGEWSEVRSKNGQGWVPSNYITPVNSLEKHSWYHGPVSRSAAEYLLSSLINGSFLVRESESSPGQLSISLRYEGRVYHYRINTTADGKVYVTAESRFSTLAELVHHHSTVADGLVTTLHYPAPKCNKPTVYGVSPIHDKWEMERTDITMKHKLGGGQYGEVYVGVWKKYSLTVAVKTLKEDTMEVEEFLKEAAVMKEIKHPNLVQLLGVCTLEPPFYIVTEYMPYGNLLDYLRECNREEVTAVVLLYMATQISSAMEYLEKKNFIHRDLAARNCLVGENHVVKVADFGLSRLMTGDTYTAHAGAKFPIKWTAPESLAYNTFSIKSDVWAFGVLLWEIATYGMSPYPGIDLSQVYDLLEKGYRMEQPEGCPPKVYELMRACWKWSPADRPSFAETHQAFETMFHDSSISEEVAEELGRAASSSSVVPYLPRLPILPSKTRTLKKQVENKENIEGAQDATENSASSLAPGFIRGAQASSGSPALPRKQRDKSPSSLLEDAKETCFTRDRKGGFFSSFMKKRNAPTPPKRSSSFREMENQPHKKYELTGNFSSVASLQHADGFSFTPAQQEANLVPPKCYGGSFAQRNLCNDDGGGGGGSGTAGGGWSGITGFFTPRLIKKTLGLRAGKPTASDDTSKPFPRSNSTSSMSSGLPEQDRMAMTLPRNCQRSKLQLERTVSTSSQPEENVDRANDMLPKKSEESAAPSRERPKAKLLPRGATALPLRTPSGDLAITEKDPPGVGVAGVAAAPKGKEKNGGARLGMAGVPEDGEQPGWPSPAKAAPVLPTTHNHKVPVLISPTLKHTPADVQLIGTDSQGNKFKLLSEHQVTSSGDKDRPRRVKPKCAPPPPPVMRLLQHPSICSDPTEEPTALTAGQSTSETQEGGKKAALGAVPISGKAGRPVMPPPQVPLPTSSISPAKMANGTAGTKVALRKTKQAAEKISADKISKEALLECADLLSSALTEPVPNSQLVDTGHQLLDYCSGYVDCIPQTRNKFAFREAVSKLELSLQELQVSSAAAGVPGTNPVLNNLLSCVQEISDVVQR
Description: PROCID mass analysis, ABL2. It counts as cell-based. To be noted: ABL2, K562.

Assay [9] concerns dasatinib binding proteins of K562 cells (K562 세포의 다사티닙 결합 단백질). Put plainly: PROCID mass analysis of biotinylated proteins (dasatinib interactors, group I). It counts as cell-based, Homo sapiens. To be noted: K562, 500 nM, 3 h.
The next assay addresses T9, TOM20-KDABL1 (Homo sapiens, UniProt P00519).
T9 construct: KDABL1, 아미노산 239-512, Uniprot ID: P00519; expressed in transfected cells
T9 sequence (P00519 239-512): T4 sequence (P00519 239-512)
Description: In cellulo mitochondrial translocation of HT-TurbID to TOM20-KDABL1. In kind it is cell-based. To be noted: data not shown.

The target in assay [10] is T7, KDABL1. Put plainly: In cellulo translocation assay of KDABL1 to mitochondrial HT-TurbID-MoA (confocal). It counts as cell-based. On the set-up: KDABL1, 아미노산 239-512, Uniprot ID: P00519; expressed in transfected cells; host or cells: U2OS (translocation, A4). To be noted: U2OS, 500 nM, 3 h.
In assay [11] the target is T2, CSK. Put plainly: PL-IP biotinylation of CSK-EGFP. It counts as cell-based.
Assay [12] deals with T10, BTK (Homo sapiens, UniProt Q06187).
T10 construct: endogenous in cells; host or cells: K562 stably expressing HT-V5-TurbID
T10 sequence (Q06187 whole entry): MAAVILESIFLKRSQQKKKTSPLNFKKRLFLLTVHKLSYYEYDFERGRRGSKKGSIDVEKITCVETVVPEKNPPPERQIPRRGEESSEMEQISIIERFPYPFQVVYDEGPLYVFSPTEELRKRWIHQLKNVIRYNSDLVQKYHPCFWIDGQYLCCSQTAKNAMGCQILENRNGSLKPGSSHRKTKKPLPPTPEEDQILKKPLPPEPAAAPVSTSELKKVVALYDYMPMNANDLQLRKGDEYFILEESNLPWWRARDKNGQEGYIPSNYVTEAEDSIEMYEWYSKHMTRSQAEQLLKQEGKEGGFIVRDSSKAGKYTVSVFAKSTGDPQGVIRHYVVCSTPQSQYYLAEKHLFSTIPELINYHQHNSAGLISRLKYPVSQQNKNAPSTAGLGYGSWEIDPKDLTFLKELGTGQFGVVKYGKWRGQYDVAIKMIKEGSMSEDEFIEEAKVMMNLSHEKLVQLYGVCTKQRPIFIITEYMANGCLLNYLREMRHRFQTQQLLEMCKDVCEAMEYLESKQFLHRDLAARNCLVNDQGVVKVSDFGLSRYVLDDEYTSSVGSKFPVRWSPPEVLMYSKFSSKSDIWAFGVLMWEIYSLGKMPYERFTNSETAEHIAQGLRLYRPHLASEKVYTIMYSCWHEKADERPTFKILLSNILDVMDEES
Put plainly: PROCID mass analysis, BTK. In kind it is cell-based.

Setting [13] is: HEK293T, 3 h, SA-HRP western blot.

T5 sequence (P35991 whole entry): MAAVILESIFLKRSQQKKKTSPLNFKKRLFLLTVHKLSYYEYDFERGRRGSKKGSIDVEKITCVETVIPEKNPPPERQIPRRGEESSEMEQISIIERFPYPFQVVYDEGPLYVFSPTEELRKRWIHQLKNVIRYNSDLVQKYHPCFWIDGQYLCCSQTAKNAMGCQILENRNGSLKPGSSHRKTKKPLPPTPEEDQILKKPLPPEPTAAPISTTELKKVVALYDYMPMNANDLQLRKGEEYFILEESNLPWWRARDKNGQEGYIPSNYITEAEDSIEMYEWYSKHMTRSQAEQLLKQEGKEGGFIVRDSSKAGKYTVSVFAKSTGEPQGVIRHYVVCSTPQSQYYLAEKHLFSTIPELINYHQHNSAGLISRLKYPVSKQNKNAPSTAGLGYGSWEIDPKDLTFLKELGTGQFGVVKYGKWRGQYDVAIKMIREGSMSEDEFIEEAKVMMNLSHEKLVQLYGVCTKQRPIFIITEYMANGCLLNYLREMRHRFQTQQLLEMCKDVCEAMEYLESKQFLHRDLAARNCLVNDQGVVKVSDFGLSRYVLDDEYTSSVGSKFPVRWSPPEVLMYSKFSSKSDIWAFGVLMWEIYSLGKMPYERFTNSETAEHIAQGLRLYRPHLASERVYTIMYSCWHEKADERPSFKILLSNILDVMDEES
T1 sequence (P51531 736-901): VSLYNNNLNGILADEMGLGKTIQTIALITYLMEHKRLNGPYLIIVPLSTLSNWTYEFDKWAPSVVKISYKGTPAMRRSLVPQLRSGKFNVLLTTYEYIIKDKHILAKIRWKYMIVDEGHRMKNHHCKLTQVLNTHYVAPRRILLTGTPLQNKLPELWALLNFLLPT

As for `Cc1nc(Nc2ncc(C(=O)Nc3c(C)cccc3Cl)s2)cc(N2CCN(CCO)CC2)n1` [다사티닙], the “physical binding affinity of ABDSMARCA2 for dasatinib” value on ABDSMARCA2 is listed as “물리적 결합 친화성을 가지고 있으며”. Further, on CSK [1], the “binding affinity for dasatinib” value is given as “다사티닙에 대한 결합 친화력이 있음”. Besides, in assay [2], the biotinylation reaction entry is “강력한 바이오틴화 반응”.
Regarding `Cc1nc(Nc2ncc(C(=O)Nc3c(C)cccc3Cl)s2)cc(N2CCN(CCOC(=O)NCCOCCOCCOCCOCCOCCCCCCCl)CC2)n1` [DA5, 2-(4-(6-((5-((2-chloro-6-methylphenyl)carbamoyl)thiazol-2-yl)amino)-2-methylpyrimidin-4-yl)piperazin-1-yl)ethyl(21-chloro-3,6,9,12,15-pentaoxahenicosyl)carbamate trifluoroacetate salt], the GI50 result in the assay with Ba/F3 cells (Ba/F3 세포) and in the assay with K562 cells (K562 세포) was “서브마이크로몰 범위” throughout. Also, the “biotinylation by HT-TurbID in DA5 treated sample” value on RIOK1 was “고도로 바이오틴화”; at CSK [3] (K562), “고도로 바이오틴화”; on SMARCA2 (SMARCA2, K562) it was “고도로 바이오틴화”; in the assay with ABL1, “고도로 바이오틴화”; at ABL2 it was “고도로 바이오틴화”; on BTK [12] (K562), “고도로 바이오틴화”. For the same compound, the biotinylated lysine residues entry on CSK [3] (MS analysis) and on BTK [12] (MS analysis) was “다수의 라이신 잔기가 DA5 처리된 HT-TurbID에 의해 바이오틴화 된다” in each case. For the same compound, the “biotinylation of TOM20-HA-KDABL1 by HT-TurbID” value at TOM20-HA-KDABL1 is given as “재현 가능한 DA5 의존성 바이오틴화를 관찰”. For the same compound, the DA5-dependent translocation result on BTK [4] (BTK, COS-7, data not shown) is given as “그대로 재현되었다”; at CSK [6] (CSK, COS-7, data not shown) it was “그대로 재현되었다”. Also, the “Pearson's correlation coefficient” value on BTK [4] (BTK, U2OS, after DA5 treatment) is “급격히 증가”; at CSK [6] (CSK, U2OS, after DA5 treatment) it was “급격히 증가”. The “translocation from cytosol to mitochondria” value at BTK [4] (BTK-mCherry, U2OS, 500 nM, 3 h) is on record as “세포질에서 미토콘드리아로 전위되는 것이 확인되었다”; on CSK [6] (CSK-EGFP, U2OS, 500 nM, 3 h) it was “세포질에서 미토콘드리아로 전위되는 것이 확인되었다”. Besides, the “fold change (FC) of biotinylation” value at SMARCA2 (SMARCA2, K562, DA5 treated vs control, highest fold change) is on record as 5.14. Besides, in assay [5], the “binding to HaloTag” value is “할로택에 잘 결합한다”. Moreover, the “biotinylation of KDABL1 by HT-TurbID” value at KDABL1 [7] is recorded as “DA5로 처리되었을 때만 KDABL1이 HT-TurbID에 의해 바이오틴화 된다”. The DA5-dependent biotinylation result at BTK [8] (BTK, HT-TurbID-MoA instead of HT-TurbID, data not shown) is given as “그대로 재현되었다”; at CSK [11] (CSK, HT-TurbID-MoA instead of HT-TurbID, data not shown) it was “그대로 재현되었다”. Besides, the “co-purification of HT-TurbID with bait protein” value is reported as “DA5 처리 샘플에서만 미끼 단백질과 공동 정제되었다” on BTK [8] (BTK-mCherry, anti-HA pulldown) and “DA5 처리 샘플에서만 미끼 단백질과 공동 정제되었다” at CSK [11] (CSK-EGFP, anti-HA pulldown). The “biotinylation of enriched BTK-mCherry” value on BTK [8] (setting [13]) is reported as “DA5 처리 하에서만 바이오틴화되었다”. In addition, the “number of proteins reproducibly biotinylated only on DA5 treatment” value in [9] (biotin 50 μM 30 min, P < 0.05, Log2(FC) > 1.2) worked out at 33. Further, the “number of proteins selected as dasatinib interactors (group I)” value in assay [9] (includes SMARCA2) worked out at 34. At TOM20-KDABL1, the “mitochondrial translocation of HT-TurbID to TOM20-KDABL1” value is recorded as “미토콘드리아 전위가 확인되었다”. Moreover, the “translocation of KDABL1 from cytosol to mitochondria” value at KDABL1 [10] is “KDABL1의 효율적인 전위”. The “biotinylation of enriched CSK-EGFP” value at CSK [11] (setting [13]) is “DA5 처리 하에서만 바이오틴화되었다”. For the same compound, the biotinylation reaction entry in [2] is reported as “강력한 바이오틴화 반응”. Further, the “streptavidin-HRP western blot pattern compared with DA and DMSO” value in assay [2] was “미묘하게 차이가 있었다”.
Take `Cc1nc(Nc2ncc(C(=O)Nc3c(C)cccc3Cl)s2)cc(N2CCN(CCOC(=O)NCCOCCOCCOCCCCCCCl)CC2)n1` [DA3, 2-(4-(6-((5-((2-chloro-6-methylphenyl)carbamoyl)thiazol-2-yl)amino)-2-methylpyrimidin-4-yl)piperazin-1-yl)ethyl(2-(2-(2-((6-chlorohexyl)oxy)ethoxy)ethoxy)ethyl)carbamate trifluoroacetate salt]: the GI50 result in the assay with Ba/F3 cells (Ba/F3 세포) and with K562 cells (K562 세포) was “서브마이크로몰 범위” in each case. The “binding to HaloTag” value in [5] is reported as “할로택에 잘 결합한다”.
